{"source": "patent US20120219529A1", "about": "“Silver ion compositions of pectins” (George H. Scherr Trust, priority 2011, published 2012)", "origin": "cited, not measured here", "data": [{"smiles": "[Ag+].[Ag+].[O-2]", "note": "[Ag2O]", "values": [{"measurement": "solubility in water", "value": "insoluble in water"}]}]}
